Laboratory results published in PubChem BioAssay AID248 (DTP/NCI, 2004).
Several values for one entry are separate records, joined by “and”; a condition that tells them apart may be missing. Equal entries are not always repeated. Toxic doses and inconclusive results are not listed. Rule as the data show it: active = T/C of 150% or more; inactive = T/C below 125%.

Test system: L1210 leukemia ip in BDF1 mice, survival T/C
Test: NCI In Vivo Anticancer Drug Screen. Data for tumor model L1210 Leukemia (intraperitoneal) in B6D2F1 (BDF1) mice
Conditions: endpoint: mean survival time, higher = longer survival
How it was run: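 Survival endpoint. Drug-treated group vs vehicle group, expressed as T divided by C. Tumor passaged by transplantation.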

[1] = dose: 100.0 mg/kg/injection, schedule: Q01DX001 (ip), vehicle: carboxymethylcellulose (CMC)
[2] = dose: 100.0 mg/kg/injection, schedule: Q04DX002 (ip), vehicle: Klucel (hydroxypropylcellulose) (HPC)
[3] = dose: 200.0 mg/kg/injection, schedule: Q04DX002 (ip), vehicle: Klucel (hydroxypropylcellulose) (HPC)
[4] = dose: 400.0 mg/kg/injection, schedule: Q04DX002 (ip), vehicle: Klucel (hydroxypropylcellulose) (HPC)
[5] = dose: 100.0 mg/kg/injection, schedule: Q04DX003 (ip), vehicle: Klucel (hydroxypropylcellulose) (HPC)
[6] = dose: 200.0 mg/kg/injection, schedule: Q04DX003 (ip), vehicle: Klucel (hydroxypropylcellulose) (HPC)
[7] = dose: 400.0 mg/kg/injection, schedule: Q04DX003 (ip), vehicle: Klucel (hydroxypropylcellulose) (HPC)
[8] = dose: 100.0 mg/kg/injection, schedule: Q01DX009 (ip), vehicle: saline with Tween-80
[9] = dose: 50.0 mg/kg/injection, schedule: Q01DX009 (ip), vehicle: Klucel (hydroxypropylcellulose) (HPC)
[10] = dose: 100.0 mg/kg/injection, schedule: Q01DX009 (ip), vehicle: Klucel (hydroxypropylcellulose) (HPC)
[11] = dose: 200.0 mg/kg/injection, schedule: Q01DX009 (ip), vehicle: Klucel (hydroxypropylcellulose) (HPC)
[12] = dose: 50.0 mg/kg/injection, schedule: Q01DX009 (ip), vehicle: saline with Tween-80
[13] = dose: 50.0 mg/kg/injection, schedule: Q04DX003 (ip), vehicle: saline
[14] = dose: 100.0 mg/kg/injection, schedule: Q04DX003 (ip), vehicle: saline
[15] = dose: 200.0 mg/kg/injection, schedule: Q04DX003 (ip), vehicle: saline
[16] = dose: 400.0 mg/kg/injection, schedule: Q01DX009 (ip), vehicle: Klucel (hydroxypropylcellulose) (HPC)
[17] = dose: 400.0 mg/kg/injection, schedule: Q04DX003 (ip), vehicle: saline
[18] = dose: 100.0 mg/kg/injection, schedule: Q04DX003 (ip), vehicle: saline with Tween-80
[19] = dose: 200.0 mg/kg/injection, schedule: Q04DX003 (ip), vehicle: saline with Tween-80
[20] = dose: 100.0 mg/kg/injection, schedule: Q01DX009 (ip), vehicle: saline
[21] = dose: 200.0 mg/kg/injection, schedule: Q01DX009 (ip), vehicle: saline
[22] = dose: 400.0 mg/kg/injection, schedule: Q01DX009 (ip), vehicle: saline
[23] = dose: 100.0 mg/kg/injection, schedule: Q01DX001 (ip), vehicle: saline
[24] = dose: 200.0 mg/kg/injection, schedule: Q01DX001 (ip), vehicle: saline
[25] = dose: 400.0 mg/kg/injection, schedule: Q01DX001 (ip), vehicle: saline

Measured: T/C

COc1ccc(-c2c([N+](=O)[O-])ccc(Cl)c2[N+](=O)[O-])cc1
inactive: dose: 50.0 mg/kg/injection, schedule: Q01DX001 (ip), vehicle: carboxymethylcellulose (CMC) 94 % of control | [1] 117 % of control | dose: 200.0 mg/kg/injection, schedule: Q01DX001 (ip), vehicle: carboxymethylcellulose (CMC) 107 % of control | dose: 400.0 mg/kg/injection, schedule: Q01DX001 (ip), vehicle: carboxymethylcellulose (CMC) 102 % of control

Cc1ccc(C(=O)OCc2ccccc2CN2CCCCC2C)cc1 (stereo unspecified)
inactive: [2] 94 % of control | [3] 108 % of control | [4] 90 % of control

CCN(C)C(=O)Nc1cccc([N+](=O)[O-])c1
inactive: [2] 101 % of control | [3] 93 % of control | [4] 93 % of control

N#CC(c1ccccc1)N1CCOCC1 (stereo unspecified)
inactive: [5] 91 % of control | [6] 96 % of control | [7] 95 % of control

C[N+](C)(Cc1ccc(F)cc1)C1c2ccccc2-c2ccccc21
inactive: dose: 6.25 mg/kg/injection, schedule: Q04DX003 (ip), vehicle: saline with Tween-80 90 % of control | dose: 25.0 mg/kg/injection, schedule: Q04DX003 (ip), vehicle: saline with Tween-80 89 % of control

COC(=O)C1(O)CC(=O)CCC1c1ccccc1 (stereo unspecified)
inactive: [5] 105 % of control | [6] 94 % of control | [7] 95 % of control

O=C(NCC1CC1)Nc1cccc2ccccc12
inactive: dose: 100.0 mg/kg/injection, schedule: Q01DX009 (ip), vehicle: other 98 % of control | dose: 200.0 mg/kg/injection, schedule: Q01DX009 (ip), vehicle: other 89 % of control | dose: 400.0 mg/kg/injection, schedule: Q01DX009 (ip), vehicle: other 92 % of control

COC1/C=C/OC2(C)Oc3c(C)c(O)c4c(O)c(c(/C=N/N5C(C)CN(Cc6ccc(C)cc6)CC5C)c(O)c4c3C2=O)NC(=O)C(C)=C/C=C/C(C)C(O)C(C)C(O)C(C)C(OC(C)=O)C1C (stereo unspecified)
inactive: [8] 94 % of control

CC1(C)C=C(C(Br)c2ccc(Cl)cc2)C(=O)c2ccccc21 (stereo unspecified)
inactive: [9] 110 % of control | [10] 105 % of control | [5] 95 % of control | [11] 100 % of control | [6] 92 % of control

Cc1nc2nc3c(ncn3C3OC(CO)C(O)C3O)c(=O)n2nc1C (stereo unspecified)
inactive: dose: 100.0 mg/kg/injection, schedule: Q01DX005 (ip), vehicle: saline 102 % of control | dose: 200.0 mg/kg/injection, schedule: Q01DX005 (ip), vehicle: saline 92 % of control

CC(=N\N=C(N)N)/C(C)=N/N=C(N)N
inactive: dose: 75.0 mg/kg/injection, schedule: Q01DX001 (ip), vehicle: saline 101 % of control | dose: 150.0 mg/kg/injection, schedule: Q01DX001 (ip), vehicle: saline 98 % of control

COc1c(CO)cc(C)cc1CO
inactive: dose: 87.5 mg/kg/injection, schedule: Q04DX003 (ip), vehicle: saline with Tween-80 101 % of control | dose: 175.0 mg/kg/injection, schedule: Q04DX003 (ip), vehicle: saline with Tween-80 124 % of control | dose: 350.0 mg/kg/injection, schedule: Q04DX003 (ip), vehicle: saline with Tween-80 101 % of control

CC[n+]1ccc(/C=C\c2cccc([N+](=O)[O-])c2)cc1
inactive: dose: 25.0 mg/kg/injection, schedule: Q01DX009 (ip), vehicle: Klucel (hydroxypropylcellulose) (HPC) 91 % of control | [9] 91 % of control | [10] 98 % of control | [5] 93 % of control

O=c1ccc2c(c1)oc1cccc3c(=O)c4ccccc4c2c13
inactive: [12] 97 % of control | [8] 101 % of control

COC(=O)c1cc(SC)nc(SC)n1
inactive: [5] 90 % of control | [6] 111 % of control | [7] 101 % of control

CCCNCCCN
inactive: dose: 25.0 mg/kg/injection, schedule: Q01DX009 (ip), vehicle: saline 100 % of control | dose: 25.0 mg/kg/injection, schedule: Q04DX003 (ip), vehicle: saline 93 % of control | dose: 50.0 mg/kg/injection, schedule: Q01DX009 (ip), vehicle: saline 105 % of control | [13] 101 % of control | [14] 94 % of control and 102 % of control | [15] 88 % of control

Cc1cc(Cl)ccc1NC(=O)Nc1ccccc1F
inactive: [10] 100 % of control | [11] 96 % of control | [16] 94 % of control

CCC(CCC(C)C1CCC2C3CC=C4CC(OC(=O)Nc5ccc(Cl)cc5)CCC4(C)C3CCC12C)C(C)C (stereo unspecified)
inactive: dose: 100.0 mg/kg/injection, schedule: Q04DX002 (ip), vehicle: saline with Tween-80 91 % of control | dose: 200.0 mg/kg/injection, schedule: Q04DX002 (ip), vehicle: saline with Tween-80 97 % of control | dose: 400.0 mg/kg/injection, schedule: Q04DX002 (ip), vehicle: saline with Tween-80 94 % of control

O=C(Nc1ccc(N(CCCl)CCCl)cc1)c1ccc([N+](=O)[O-])cc1
inactive: dose: 50.0 mg/kg/injection, schedule: Q04DX002 (ip), vehicle: saline 104 % of control | dose: 100.0 mg/kg/injection, schedule: Q04DX002 (ip), vehicle: saline 95 % of control | dose: 200.0 mg/kg/injection, schedule: Q04DX002 (ip), vehicle: saline 117 % of control | dose: 400.0 mg/kg/injection, schedule: Q04DX002 (ip), vehicle: saline 114 % of control

COc1ccc(/C=C/c2cnc3ccccc3n2)cc1OC
inactive: [10] 91 % of control | [5] 98 % of control | [11] 100 % of control | [6] 93 % of control | [16] 92 % of control | [7] 97 % of control

Clc1ccc2c(OCCN3CC3)ccnc2c1
inactive: [1] 102 % of control

CN(C)C(=O)Nc1nc2ccccc2s1
inactive: dose: 100.0 mg/kg/injection, schedule: Q04DX002 (ip), vehicle: other 88 % of control and 92 % of control | dose: 100.0 mg/kg/injection, schedule: Q04DX003 (ip), vehicle: other 96 % of control and 120 % of control | dose: 200.0 mg/kg/injection, schedule: Q04DX002 (ip), vehicle: other 97 % of control and 100 % of control | dose: 200.0 mg/kg/injection, schedule: Q04DX003 (ip), vehicle: other 99 % of control and 105 % of control | dose: 400.0 mg/kg/injection, schedule: Q04DX002 (ip), vehicle: other 95 % of control and 103 % of control

O=S(=O)(C/C(=N\O)c1ccccc1)C/C(=N/O)c1ccccc1
inactive: [14] 104 % of control | [15] 98 % of control | [17] 100 % of control

ClCc1ccc2ccccc2n1
inactive: dose: 50.0 mg/kg/injection, schedule: Q04DX003 (ip), vehicle: saline with Tween-80 104 % of control | [18] 102 % of control | [19] 93 % of control

Cc1ccccc1-c1nc2cc(Cl)ccc2c(=O)o1
inactive: dose: 25.0 mg/kg/injection, schedule: Q01DX009 (ip), vehicle: saline with Tween-80 98 % of control | [12] 88 % of control | [8] 96 % of control | [18] 100 % of control | [19] 102 % of control | dose: 400.0 mg/kg/injection, schedule: Q04DX003 (ip), vehicle: saline with Tween-80 108 % of control

CCO[Si](CC)(CC)CC
inactive: [20] 100 % of control | [21] 98 % of control | [22] 102 % of control

Cc1ccc(NC(=S)N2CCOCC2)cc1C
inactive: [10] 94 % of control | [11] 100 % of control | [16] 94 % of control

C#CC(C)(C)OCC(CCl)OC(N)=O (stereo unspecified)
inactive: [13] 98 % of control | [14] 96 % of control | [15] 101 % of control | [17] 104 % of control

CCOc1ncc(N)c(OCC)n1
inactive: dose: 50.0 mg/kg/injection, schedule: Q01DX001 (ip), vehicle: saline 112 % of control | [23] 97 % of control | [24] 103 % of control | [25] 100 % of control

NCc1nc(C(=O)O)cs1
inactive: [23] 110 % of control | [20] 91 % of control | [14] 116 % of control | [24] 102 % of control | [21] 87 % of control | [15] 112 % of control | [25] 112 % of control | [22] 86 % of control | [17] 96 % of control
